pEC50: −log10 of the molar value. Calls of active or inactive are those of the source. The calls are words filed in the database; no cut-off is given here.
Legend:
Assay type in all cases: functional, tissue-based
Myometrium [1] = assay: Induction of contraction in beta-estradiol stimulated rat myometrium
Myometrium [2] = assay: Induction of contraction per minute in beta-estradiol stimulated rat myometrium at 0.6 uM
Myometrium [3] = assay: Induction of contraction per minute in beta-estradiol stimulated rat myometrium at 1 nM

| pEC50 (Myometrium [1]) | SMILES | Activity (Myometrium [2]) | Activity (Myometrium [3]) |
| --- | --- | --- | --- |
| 6.40 | CC[C@H](C)[C@@H]1NC(=O)[C@H](Cc2ccc(O)cc2)NC(=O)[C@@H](N)CSSC[C@@H](C(=O)N2CCC[C@H]2C(=O)N[C@@H](CC(C)C)C(=O)NCC(=O)NC[C@H]2O[C@@H]3O[C@H]4[C@H](O)[C@@H](O)[C@@H](O[C@H]5[C@H](O)[C@@H](O)[C@@H](O[C@H]6[C@H](O)[C@@H](O)[C@@H](O[C@H]7[C@H](O)[C@@H](O)[C@@H](O[C@H]8[C@H](O)[C@@H](O)[C@@H](O[C@H]9[C@H](O)[C@@H](O)[C@@H](O[C@H]2[C@H](O)[C@H]3O)O[C@@H]9CO)O[C@@H]8CO)O[C@@H]7CO)O[C@@H]6CO)O[C@@H]5CO)O[C@@H]4CO)NC(=O)[C@H](CC(N)=O)NC(=O)[C@H](CCC(N)=O)NC1=O | – | – |
| – | CC[C@H](C)[C@@H]1NC(=O)[C@H](Cc2ccc(O)cc2)NC(=O)[C@H](N)CSSC[C@@H](C(=O)N2CCC[C@H]2C(=O)N[C@@H](CC(C)C)C(=O)NCC(=O)NC[C@H]2O[C@@H]3O[C@H]4[C@H](O)[C@@H](O)[C@@H](O[C@H]5[C@H](O)[C@@H](O)[C@@H](O[C@H]6[C@H](O)[C@@H](O)[C@@H](O[C@H]7[C@H](O)[C@@H](O)[C@@H](O[C@H]8[C@H](O)[C@@H](O)[C@@H](O[C@H]9[C@H](O)[C@@H](O)[C@@H](O[C@H]2[C@H](O)[C@H]3O)O[C@@H]9CO)O[C@@H]8CO)O[C@@H]7CO)O[C@@H]6CO)O[C@@H]5CO)O[C@@H]4CO)NC(=O)[C@H](CC(N)=O)NC(=O)[C@H](CCC(N)=O)NC1=O | Active | – |
| 8.77 | CC[C@H](C)[C@@H]1NC(=O)[C@H](Cc2ccc(O)cc2)NC(=O)[C@@H](N)CSSC[C@@H](C(=O)N2CCC[C@H]2C(=O)N[C@@H](CC(C)C)C(=O)NCC(N)=O)NC(=O)[C@H](CC(N)=O)NC(=O)[C@H](CCC(N)=O)NC1=O [OXYTOCIN] | – | Active |
